Data published in patent US20260083769A1, “2-Aminopropane-1,3-Diol-Capped Cationic Peptoids for Nucleic Acid Delivery” (NUTCRACKER THERAPEUTICS, INC., priority 2022, published 2026).
Like-named read-outs stand apart in the source and are kept apart here. Where a SMILES comes first, the peptide text is derived from it. [ ]: non-standard residue; d: D form. N(2-ethylhexyl)Gly = CCCCC(CC)CNCC(=O)O; Gly(N-dodecyl) = CCCCCCCCCCCCNCC(=O)O; N(CH(CH2OH)2)Gly = O=C(O)CNC(CO)CO; NHexGly = CCCCCCNCC(=O)O

How the values were obtained:
[1] = Percent encapsulated mRNA, RiboGreen assay; format: physicochemical; conditions: Table 5; delivery vehicle comprising the peptoid, Formulation D22, fLuc mRNA
How it was run: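 Modified RiboGreen fluorescence assay on Fluc mRNA formulations diluted to 500 ng/ml in Tris-EDTA. Samples were read with and without Triton X-100 lysis (2% for 10 min in one protocol). Percent encapsulation was derived from the fluorescence ratio of intact versus lysed particles.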

[2] = RBC hemolysis as metric for fusogenicity; format: cell-based; conditions: sheep red blood cells (RBCs), 5% v/v, Table 5, delivery vehicle, 37° C. 45 min
How it was run: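 Sheep RBCs at 5% v/v in 20 mM citrate/140 mM NaCl pH 5.5 or PBS, exposed to LNPs at […] in well, 37 °C for 45 min. Supernatant absorbance at 425 nm; % hemolysis normalized to 2% Triton full lysis and buffer-only control.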

[3] = Particle size and polydispersity (PDI) of delivery vehicles by dynamic light scattering; format: physicochemical; conditions: Table 5; delivery vehicle comprising the peptoid, Formulation D22, fLuc mRNA
How it was run: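 Delivery vehicle complexes were diluted in PBS to 2 ng/μL and measured by DLS. The cumulant fit of the correlation function gave PDI and hydrodynamic diameter in nm.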

[4] = pH 5, read-out: Hemolysis at pH 5
[5] = pH 7, read-out: Hemolysis at pH 7

SMILES | % Encapsulation [1] [%] | hemolysis at 45 min, 150 mM total lipid [2, 4] [%] | hemolysis at 45 min, 150 mM total lipid [2, 5] [%] | PDI [3] | Particle Size (nm) [3] [nm]
CCCCCCCCCCCCN(CC(=O)N(CC(=O)N(CC(=O)N(CCCCCCCCCCCC)CC(=O)N(CC(=O)N(CC(N)=O)CC(CC)CCCC)CC(CC)CCCC)CC(CC)CCCC)CC(CC)CCCC)C(=O)CNC(CO)CO (centres unmarked) [Compound 31] (H-[N(CH(CH2OH)2)Gly][Gly(N-dodecyl)][N(2-ethylhexyl)Gly][N(2-ethylhexyl)Gly][Gly(N-dodecyl)][N(2-ethylhexyl)Gly][N(2-ethylhexyl)Gly]-NH2) | 86.9 | 5.8 | 2 | 0.1 | 80.8
CCCCCCCCCCCCN(CC(=O)N(CC(=O)N(CC(=O)N(CCCCCCCCCCCC)CC(=O)N(CC(N)=O)CC(CC)CCCC)CC(CC)CCCC)CC(CC)CCCC)C(=O)CN(CC(CC)CCCC)C(=O)CNC(CO)CO (centres unmarked) [Compound 41] (H-[N(CH(CH2OH)2)Gly][N(2-ethylhexyl)Gly][Gly(N-dodecyl)][N(2-ethylhexyl)Gly][N(2-ethylhexyl)Gly][Gly(N-dodecyl)][N(2-ethylhexyl)Gly]-NH2) | 94.2 | 4.5 | 2.9 | 0.15 | 75.7
CCCCCCN(CC(N)=O)C(=O)CN(CC(CC)CCCC)C(=O)CN(CC(CC)CCCC)C(=O)CN(CCCCCC)C(=O)CN(CC(CC)CCCC)C(=O)CN(CC(CC)CCCC)C(=O)CNC(CO)CO (centres unmarked) [Compound 12] (H-[N(CH(CH2OH)2)Gly][N(2-ethylhexyl)Gly][N(2-ethylhexyl)Gly][NHexGly][N(2-ethylhexyl)Gly][N(2-ethylhexyl)Gly][NHexGly]-NH2) | 97.4 | 52.1 | 1.5 | 0.32 | 91.4
CCCCCCCCCCCCN(CC(=O)N(CC(N)=O)CC(CC)CCCC)C(=O)CN(CCCCCC)C(=O)CN(CC(CC)CCCC)C(=O)CN(CCCCCCCCCCCC)C(=O)CN(CCCCCC)C(=O)CNC(CO)CO (centres unmarked) [Compound 34] (H-[N(CH(CH2OH)2)Gly][NHexGly][Gly(N-dodecyl)][N(2-ethylhexyl)Gly][NHexGly][Gly(N-dodecyl)][N(2-ethylhexyl)Gly]-NH2) | 71.2 | 11.8 | 27.6 | 0.093 | 118.4
